Where “and” joins values, the source holds several entries; their conditions need not be identical. Equal entries are not always repeated.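 Step 1: Grow cells in 96-well plates. Step 2: Expose to compound for 48 hours at 5 concentrations. Step 3: Interpolate endpoints linearly; if unreached, use highest concentration. Here, GI50 denotes the concentration required for 50% inhibition of growth. The concentration for full growth arrest is given as TGI.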
Experiments:
Test in all cases: NCI anticancer screen, dose series, 48 h
[1] = tested on: RPMI-8226 leukemia
[2] = tested on: MCF7 breast
[3] = tested on: SF-539 CNS
[4] = tested on: OVCAR-3 ovarian
[5] = tested on: TK-10 renal
[6] = tested on: A549 NSCLC
[7] = tested on: CCRF-CEM leukemia
[8] = tested on: COLO 205 colon
[9] = tested on: U251 CNS
[10] = tested on: SK-MEL-5 melanoma

Row | SMILES | GI50 [1] | TGI [1] | GI50 [2] | TGI [2] | GI50 [3] | TGI [3] | GI50 [4] | TGI [4] | GI50 [5] | TGI [5] | GI50 [6] | TGI [6] | GI50 [7] | TGI [7] | GI50 [8] | TGI [8] | GI50 [9] | TGI [9] | GI50 [10] | TGI [10]
1 | O=c1[nH]cnc2[nH]ncc12 | 116 µM | > 5000 µM | 259 µM | > 5000 µM | 2010 µM | > 5000 µM | 269 µM | > 1820 µM | > 94.6 µM and 258 µM | > 5000 µM | 1940 µM | > 5000 µM | 360 µM | > 5000 µM | 440 µM | > 5000 µM | 1560 µM | > 4470 µM | 1200 µM | > 5000 µM
2 | COc1ccccc1/C=N\N=C(N/N=C/c1ccccc1OC)N/N=C/c1ccccc1OC | 2.96 µM | 12.3 µM | 3.02 µM | 23.5 µM | 4.27 µM | > 100 µM | 2.55 µM | 13.1 µM | 6.01 µM | > 100 µM | 3.6 µM | > 100 µM | 3.22 µM | > 100 µM | 2.11 µM | 4.63 µM | 2.67 µM | 15 µM | 1.77 µM | 3.23 µM
3 | C=CC1CC12C(=O)C1OC2(C)C2C(=O)c3c(O)ccc(O)c3C(=O)C12 (centres undefined) | 0.423 µM |  | 2.2 µM | 8.38 µM | 4.5 µM | 14.8 µM | 1.13 µM | 3.83 µM | 2.96 µM | 9.38 µM | 8.5 µM | 27.2 µM | 1.3 µM | 16 µM | 1.52 µM | 17 µM | 4.3 µM | 12.6 µM | 1.86 µM | 4.97 µM
4 | O=C(N/N=C/c1ccccc1O)C(=O)Nc1ccc(F)cc1 | 7.9 µM | > 100 µM | 3.52 µM | > 100 µM | 2.98 µM | 18.5 µM | 3.18 µM | > 100 µM | 6.12 µM | > 100 µM | 3.67 µM | > 100 µM | 1.35 µM | 13.4 µM | 3.28 µM | > 100 µM | 2.75 µM | > 100 µM | 5.62 µM | > 100 µM
5 | COc1ccc(/C=C/C(=O)Oc2cc(O)cc(O)c2)cc1 |  | 42.4 µM |  | 71.7 µM |  | > 100 µM |  | 32.1 µM |  | > 100 µM |  | > 100 µM |  | 37.3 µM |  | > 100 µM |  | > 100 µM |  | > 100 µM
6 | CC(C)NC(=O)OCc1c(COC(=O)NC(C)C)c(-c2ccc(Cl)cc2)n2c1CCC2 | 2.6 µM | 23.8 µM | 3.59 µM | 33.4 µM | 2.53 µM | 9.72 µM | 3.08 µM | 10.3 µM | 1.98 µM | 7.97 µM | 8.12 µM | 33.5 µM | 1.04 µM | > 33.4 µM | 4.26 µM | 17.1 µM | 2.88 µM | 35.2 µM | 5.21 µM | 18.3 µM
7 | COc1ccccc1C#Cc1ccccc1C#CCCCCCC#Cc1ccccc1C#Cc1ccccc1OC | 29 µM | > 100 µM | 17.3 µM | > 100 µM | > 100 µM | > 100 µM | 93.5 µM | > 100 µM | > 100 µM | > 100 µM | > 100 µM | > 100 µM | 65.4 µM | > 100 µM | 80.1 µM | > 100 µM | 97.1 µM | > 100 µM | > 100 µM | > 100 µM
8 | O=C(c1ccco1)c1c(C(F)(F)F)n([O-])c2ccccc2[n+]1=O | 0.227 µM | 1.27 µM | 0.458 µM | 7.36 µM | 0.28 µM | 0.712 µM | 0.735 µM | 3.88 µM | 1.49 µM | 6.7 µM | 3.18 µM | 27.7 µM | 0.671 µM | 3.71 µM | 3.32 µM | 28.5 µM | 0.719 µM | 18.2 µM | 0.999 µM | 3.68 µM
9 | CCCCCCCCCCCCSC(=N)N | 2.94 µM | 10.2 µM | 3.44 µM | 15.5 µM | 15.2 µM | 32 µM | 10.3 µM | 26.2 µM | 16.4 µM | 32.3 µM | 12.9 µM | 29.5 µM | 8.4 µM | 26.1 µM | 1.98 µM | 3.72 µM | 2.64 µM | 8.74 µM | 12.6 µM | 28.2 µM
10 | Cc1cc(Cc2cc(C)cc(C(C)(C)C)c2O)c(O)c(C(C)(C)C)c1 | 7.55 µM | 57.2 µM | 3.47 µM | 12.7 µM | 13.3 µM | 26 µM | 3.97 µM | 13.1 µM | 8.22 µM | 21.3 µM | 3.86 µM | 13.2 µM | 9.98 µM | > 100 µM | 6.73 µM | 19.6 µM | 5.74 µM | 17.5 µM | 10.6 µM | 22.4 µM
11 | CC(=O)O/N=C1/C(c2c(O)[nH]c3cc(Br)ccc23)=Nc2ccccc21 | 2.03 µM | 5.27 µM | 1.93 µM | 5.98 µM | 0.818 µM | 3.13 µM | 0.771 µM | 2.14 µM | 2.09 µM | 5.32 µM | 1.48 µM | 3.47 µM | 1.38 µM | 5.37 µM | 1.57 µM | 3 µM | 1.72 µM | 5.63 µM | 0.524 µM | 1.33 µM
12 | CO[C@@H]1/C=C(C)/C=C/[C@@H](C)/C=C(\C)C(=O)OC(/C(C)=C/C=C(\C)CNC(=O)[C@H](CO)NC=O)[C@@H](C)/C=C/C=C/[C@H](OC)CC/C=C(C)/C=C/C1 (some centres undefined) | < 0.005 µM | 11.8 µM | < 0.005 µM | 9.14 µM | < 0.005 µM | 0.199 µM | < 0.005 µM | 0.605 µM | < 0.005 µM | 0.236 µM | 0.00881 µM | 0.0242 µM | < 0.005 µM | 16.5 µM | 0.00816 µM | 0.627 µM | < 0.005 µM | 0.214 µM | < 0.005 µM | < 0.005 µM
13 | NC1=NC(c2ccc(Cl)cc2)C2=C(N1)/C(=C/c1ccc(Cl)cc1)CCC2 (centres undefined) | 2.36 µM | 6.15 µM | 3.62 µM | > 100 µM | 19.9 µM | > 78 µM | 5.76 µM | 15.4 µM | 27.4 µM | 86.8 µM | 7.79 µM | 35 µM | 5.95 µM | > 81.5 µM | 6.17 µM | 19.9 µM | 3.38 µM | 12.2 µM | 5.51 µM | 12.9 µM
14 | COc1ccc2c(c1)C(=O)/C(=C/c1ncc([N+](=O)[O-])n1C)O2 | 0.416 µM | 2.06 µM | 0.32 µM | 7.98 µM | 1.55 µM | 3.41 µM | 1.3 µM | 5.11 µM | 1.38 µM | 13.8 µM | 2.18 µM | 6.28 µM | 0.141 µM | 0.622 µM | 1.07 µM | 3.9 µM | 0.772 µM | 2.84 µM | 0.207 µM | 0.552 µM

From PubChem BioAssay (NCI)
